Values of other authors, collected in patent US8614228B2, “Quinone prodrug compositions and methods of use” (ArQule, Inc., priority 2004, dated 2013).

System: normal fresh or proliferating human PBMC

In the case of `CC1(C)CCC2=C(O1)c1ccccc1C(=O)C2=O` [β-lapachone, 3,4-dihydro-2,2-dimethyl-2H-naphtho[1,2-b]pyran-5,6-dione], the cytotoxic effects is listed as “No cytotoxic effects were observed”.
